Results on nine compounds are retold here after PubChem BioAssay (NCI).

Test systems include LOX IMVI melanoma; DU-145 prostate; UACC-62 melanoma; SNB-19 CNS; SW-620 colon; HL-60(TB) leukemia; SK-MEL-28 melanoma; RPMI-8226 leukemia; NCI-H522 lung; TK-10 renal.
Holding throughout (assay): NCI tumour cell line growth inhibition, 48 h

SMILES strings stand for the structures.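 All cell lines were grown in 96-well plates and treated with compound for 48 hours. GI50 is the concentration that inhibits growth by half. TGI denotes the concentration required for complete inhibition of growth.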

On to `C=C1C(=O)OC2C1CC(OC(C)=O)/C(C)=C/CCC1(C)OC21` (centres undefined), for which the TGI in the test with LOX IMVI melanoma, with DU-145 prostate, with UACC-62 melanoma, in the test on SNB-19 CNS, with SW-620 colon and in the test on HL-60(TB) leukemia was > 100 µM each time. Also, the TGI in the test on SK-MEL-28 melanoma, in the test on RPMI-8226 leukemia and in the test on NCI-H522 lung was > 100 µM in each case.

Regarding `COc1cc(/C=C2\CCC/C(=C\c3ccc(OCC4CO4)c(OC)c3)C2=O)ccc1OCC1CO1` (centres undefined), the GI50 was 1.23 µM with LOX IMVI melanoma; 3.06 µM in the test on DU-145 prostate; 2.02 µM with UACC-62 melanoma; 4.73 µM in the test on SNB-19 CNS; 2.46 µM with SW-620 colon; 3.59 µM with HL-60(TB) leukemia. Moreover, the values for the GI50 in the test with SK-MEL-28 melanoma, in the test with TK-10 renal and in the test with NCI-H522 lung were 1.81 µM, 4.04 µM and 2.47 µM, respectively. In addition, the TGI was 3.78 µM in the test with LOX IMVI melanoma; 15.8 µM in the test on DU-145 prostate; 4.8 µM with UACC-62 melanoma; 76.4 µM with SNB-19 CNS; 5.09 µM with SW-620 colon; > 100 µM with HL-60(TB) leukemia. Also, the values for the TGI with SK-MEL-28 melanoma, in the test on TK-10 renal and in the test with NCI-H522 lung were 3.43 µM, 17.6 µM and 6 µM, respectively.

On to `CC(=O)NC1CONC1=O` (centres undefined), for which the TGI with LOX IMVI melanoma, with DU-145 prostate, with UACC-62 melanoma, with SNB-19 CNS, in the test with SW-620 colon and with HL-60(TB) leukemia was > 100 µM each time. The TGI with SK-MEL-28 melanoma, with TK-10 renal, in the test with RPMI-8226 leukemia and in the test with NCI-H522 lung was > 100 µM each time.

Take `CNCCn1c(=O)c2cc(OC)c(OC)cc2c2cnc3cc4c(cc3c21)OCO4`: the GI50 with LOX IMVI melanoma was < 0.01 µM; in the test with DU-145 prostate, < 0.01 µM; in the test with SNB-19 CNS, < 0.01 µM; with SW-620 colon, 0.0121 µM; in the test with HL-60(TB) leukemia it was < 0.01 µM; with TK-10 renal, 0.0465 µM. In addition, the GI50 with RPMI-8226 leukemia was 0.0254 µM; in the test on NCI-H522 lung, < 0.01 µM. The TGI was found to be 0.1 µM in the test on LOX IMVI melanoma; 1.27 µM in the test on DU-145 prostate; 2.28 µM with SNB-19 CNS; 1.95 µM in the test with SW-620 colon; 0.111 µM with HL-60(TB) leukemia; 2.16 µM with TK-10 renal. Further, the TGI with RPMI-8226 leukemia came to 0.915 µM; in the test on NCI-H522 lung, 0.0261 µM.

As to `Cn1cc(S(=O)(=O)N2CCC3=Cc4c(cnn4-c4ccc(F)cc4)C[C@]3(C(=O)c3cc(C(F)(F)F)ccn3)C2)cn1`, the GI50 in the test with LOX IMVI melanoma was > 100 µM; in the test with DU-145 prostate, > 100 µM; in the test with UACC-62 melanoma, 29.1 µM; in the test with SNB-19 CNS it was > 100 µM; with SW-620 colon, > 100 µM; with HL-60(TB) leukemia, > 100 µM. The GI50 in the test on SK-MEL-28 melanoma was > 100 µM; in the test with TK-10 renal it was > 100 µM; in the test on RPMI-8226 leukemia, 93.7 µM; in the test with NCI-H522 lung it was > 100 µM. Also, the TGI in the test with LOX IMVI melanoma, in the test with DU-145 prostate, with UACC-62 melanoma, with SNB-19 CNS, in the test on SW-620 colon and in the test on HL-60(TB) leukemia was > 100 µM throughout. Moreover, the TGI in the test on SK-MEL-28 melanoma, with TK-10 renal, in the test with RPMI-8226 leukemia and in the test with NCI-H522 lung was > 100 µM each time.

Regarding `CC(C)(C)c1cc(C(=O)/C=C/c2ccc(C(=O)O)cc2)cc(C(C)(C)C)c1`, the TGI was 8.54 µM with LOX IMVI melanoma; 8.52 µM in the test with DU-145 prostate; 4.67 µM in the test on UACC-62 melanoma; 5.74 µM in the test with SNB-19 CNS; 12.1 µM with SW-620 colon; > 100 µM in the test on HL-60(TB) leukemia. The TGI with SK-MEL-28 melanoma was found to be 6.83 µM; with TK-10 renal, 11.9 µM; in the test with RPMI-8226 leukemia, 6.06 µM; in the test with NCI-H522 lung, 15.4 µM.

Regarding `NCCCOc1cc(Cl)ccc1NC(=O)c1cc2ccccc2cc1OCCCN`, the GI50 in the test on LOX IMVI melanoma was 1.2 µM; in the test with DU-145 prostate, 1.58 µM; in the test with UACC-62 melanoma, 1.78 µM; in the test with SNB-19 CNS, 1.62 µM; in the test with SW-620 colon it was 1.58 µM; in the test on HL-60(TB) leukemia, 0.665 µM. Further, the GI50 in the test on SK-MEL-28 melanoma was 1.81 µM; with TK-10 renal, 1.73 µM; in the test on NCI-H522 lung it was 0.575 µM. The TGI in the test with LOX IMVI melanoma was 2.59 µM; in the test with DU-145 prostate it was 2.95 µM; in the test on UACC-62 melanoma, 3.3 µM; with SNB-19 CNS, 3.21 µM; in the test with SW-620 colon, 3.06 µM; with HL-60(TB) leukemia, 2.39 µM. Besides, the TGI with SK-MEL-28 melanoma amounted to 3.23 µM; in the test with TK-10 renal, 3.38 µM; in the test on NCI-H522 lung, 2.34 µM.

With `O=C(N/N=C/c1ccc(O)cc1O)c1cccnc1`, the GI50 was 1.84 µM in the test with LOX IMVI melanoma; 3.45 µM with DU-145 prostate; 2.38 µM with UACC-62 melanoma; 5.8 µM with SNB-19 CNS; 4.34 µM in the test on SW-620 colon; 3.74 µM in the test on HL-60(TB) leukemia. Besides, the GI50 was 3.59 µM with SK-MEL-28 melanoma, 2.52 µM with TK-10 renal, 4.13 µM with RPMI-8226 leukemia and 3.21 µM in the test on NCI-H522 lung. Further, the TGI is > 100 µM with LOX IMVI melanoma; > 100 µM with DU-145 prostate; 17.5 µM in the test on UACC-62 melanoma; > 100 µM in the test with SNB-19 CNS; > 100 µM with SW-620 colon; > 100 µM in the test on HL-60(TB) leukemia. Further, the TGI in the test on SK-MEL-28 melanoma is 62.6 µM; with TK-10 renal, > 100 µM; with RPMI-8226 leukemia, > 100 µM; in the test on NCI-H522 lung, > 100 µM.

On to `Clc1nc(Cl)c2ncn(Cc3ccccc3Cn3cnc4c(Cl)nc(Cl)nc43)c2n1`, for which the GI50 in the test on LOX IMVI melanoma is 1.16 µM; with DU-145 prostate, 1.21 µM; with UACC-62 melanoma, 1.66 µM; in the test with SNB-19 CNS, 2.9 µM; in the test on SW-620 colon it was 1.67 µM; with HL-60(TB) leukemia, 1.79 µM. Besides, the GI50 in the test on SK-MEL-28 melanoma was 2.96 µM; with TK-10 renal it was 2.93 µM; with NCI-H522 lung it was 4.28 µM. Also, the TGI was 2.65 µM with LOX IMVI melanoma; 2.65 µM with DU-145 prostate; 3.25 µM in the test on UACC-62 melanoma; > 26.1 µM in the test on SNB-19 CNS; 3.33 µM with SW-620 colon; 9.14 µM with HL-60(TB) leukemia. For the same compound, the TGI with SK-MEL-28 melanoma was found to be 11.8 µM; with TK-10 renal, 11 µM; in the test on NCI-H522 lung it was 13.7 µM.
